Measured values as given in US20210009557A1, “ACYCLIC CXCR4 INHIBITORS AND USES THEREOF” (X4 Pharmaceuticals, Inc., priority 2017, published 2021).

Key:
in vitro = conditions: human, Caco-2, pH 7.4
Description: The goal of this assay was to evaluate the intestinal absorption potential of drug candidates using Caco-2 cell lines.
Experimental Procedure • 1. Pre-warm Pre-warm HBSS Buffer in 37° C. water bath • 2. Sonicate Take compounds from −20° C., sonicate for a few minutes (no less than 1 minute) • 3. Solution preparation
For A-to-B Direction: • HBSS buffer with 0.3% DMSO and 5 μM LY: add 150 μL DMSO and 50 μL LY (5 mM) into 50 ml HBSS buffer (pH 7.4). • HBSS buffer with 0.1% DMSO and 5 μM LY: add 50 μL DMSO and 50 μL LY (5 mM) into 50 mL HBSS buffer (pH 7.4).
For B-to-A Direction: • HBSS buffer with 0.3% DMSO: add 150 μL DMSO into 50 ml HBSS buffer (pH 7.4). HBSS buffer with 0.1% DMSO: add 50 μL DMSO into 50 ml HBSS buffer (pH 7.4).
For A-to-B Direction: • Prepare HBSS buffer with 0.4% DMSO: add 200 μL DMSO into 50 ml HBSS buffer (pH 7.4).
For B-to-A Direction: • Prepare HBSS buffer with 0.4% DMSO and 5 μM LY: add 200 μL DMSO and 50 μL LY (5 mM) into 50 ml HBSS buffer (pH 7.4).
• 4. Measure TEER Take cell culture plate out of incubator, wash the cell monolayers with HBSS buffer, and then measure TEER values at Rm temperature. • 5. Centrifuge Centrifuge the compound solution (from step 3) at 4000 rpm for 5 min before loading to donor chambers. • 6. Dosing Add solution based on the volumes listed in the following table (make sure to take extra 100 μL of donor sample for T0 as Backup).
• 7. Apical LYTO samples To determine LY concentration in the apical chamber, take 100 μL sample from apical chambers into an opaque plate for LYTO. • 8. Pre-warm Pre-warm apical and basolateral plates at 37° C. for about 5 min, then begin transport by placing the apical plate onto basolateral plate. • 9. Incubation Keep the plates in incubator at 37° C. for 90 min. • 10.
• Prepare 1× solution: • 3 μL (20×)+57 μL of 0.4% DMSO HBSS+60 μL ACN with IS (Osalmid or Imipramine)—120 μL (1×) • 11. Transport termination Separate the apical plate from the basolateral plate after 90-min incubation. • 12. Measure LY Take 100 μL samples from basolateral plate to an opaque plate as LYT90. • 13. Measure LY concentrations for LYTO and LYT90 by Fluorometer (at excitation of 485 nm/emission of 535 nm). • 14.
Drug permeability: Papp=(VA/(Area×time))×([drug]accepter/(([drug]initial, donor)×Dilution Factor) • Where VA is the volume in the acceptor well, area is the surface area of the membrane and time is the total transport time in seconds.
For Millicell-24 Cell Culture Plates: surface area of the membrane=0.7 cm^2, VA=0.8 mL (A-to-B) or 0.4 mL (B-to-A)

[1] = biological target: T1, CXCR-4 transfected U87 cell line (U87.CXCR4) (Homo sapiens, UniProt P61073); assay: Intracellular CXCL-12-induced calcium mobilization assay (FLIPR); format: cell-based; conditions: U87.CXCR4 cells; CXCL-12 25-50 ng/mL; compounds added 15 minutes before; read-out: IC50 CXCL-12 Ca2+ flux U87.CXCR4+
T1 construct: expressed in transfected cells; host or cells: U87 cell line (U87.CXCR4)
T1 sequence (P61073 whole entry): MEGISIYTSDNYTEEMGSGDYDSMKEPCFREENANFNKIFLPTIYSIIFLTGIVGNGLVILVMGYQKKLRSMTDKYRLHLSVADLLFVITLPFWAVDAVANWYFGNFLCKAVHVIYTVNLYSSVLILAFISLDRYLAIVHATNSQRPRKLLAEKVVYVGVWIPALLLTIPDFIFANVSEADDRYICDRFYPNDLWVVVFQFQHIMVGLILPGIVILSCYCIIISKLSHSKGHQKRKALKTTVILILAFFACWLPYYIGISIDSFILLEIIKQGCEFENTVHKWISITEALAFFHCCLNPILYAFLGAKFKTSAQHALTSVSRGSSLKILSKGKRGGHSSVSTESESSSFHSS
Description: Intracellular calcium mobilization induced by chemokines orchemokine-derived peptides were evaluated using a calcium responsive fluorescent probe and a FLIPR system. The CXCR-4 transfected U87 cell line (U87.CXCR4) cells were seeded in gelatine-coated black-wall 96-well plates at 20,000 cells per well and incubated for 12 hours. Cells were then loaded with the fluorescent calcium probe Fluo-2 acetoxymethyl at 4 μM final concentration in assay buffer (Hanks' balanced salt solution with 20 mM HEPES buffer and 0.2% bovine serum albumin, pH 7.4) for 45 min at 37′C. The intracellular calcium mobilization induced by the CXCL-12 (25-50 ng/mL) was then measured at 37° C. by monitoring the fluorescence as a function of time in all the wells simultaneously using a fluorometric imaging plate reader (FLIPR Tetra, Molecular Devices).

[2] = biological target: T2, Jurkat cells expressing CXCR4 (Homo sapiens, UniProt P61073); assay: Chemokine (CXCL12-AF647) binding inhibition assay; conditions: CXCL12-AF647 25 ng/mL, read-out: IC50 CXCL-12 binding Jurkat
T2 construct: Jurkat cells expressing CXCR4; endogenous in cells; host or cells: Jurkat cells
T2 sequence (P61073 whole entry): as above
Description: Jurkat cells expressing CXCR4 were washed once with assay buffer (Hanks' balanced salt solution with 20 mM HEPES buffer and 0.2% bovine serum albumin, pH 7.4) and then incubated for 15 min at room temperature with the test compounds diluted in assay buffer at dose-dependent concentrations. Subsequently, CXCL12-AF647 (25 ng/mL) was added to the compound-incubated cells. The cells were incubated for 30 min at room temperature. Thereafter, the cells were washed twice in assay buffer, fixed in 1% paraformaldehyde in PBS, and analyzed on the FL4 channel of a FACSCalibur flow cytometer equipped with a 635-nm red diode laser (Becton Dickinson, San Jose, Calif., USA).
The percentages of inhibition of CXCL12-AF647 binding were calculated according to the formula: [1−((MFI−MFINC)/(MFIPC−MFINC))]×100 where MFI is the mean fluorescence intensity of the cells incubated with CXCL12-AF647 in the presence of the inhibitor, MFINC is the mean fluorescence intensity measured in the negative control (i.e., autofluorescence of unlabeled cells), and MFIPC is the mean fluorescence intensity of the positive control (i.e., cells exposed to CXCL12-AF647 alone).

Row | Compound | Papp A→B at 90 min, 10 μM (in vitro) [×10⁻⁶ cm/s] | Papp B→A at 90 min, 10 μM (in vitro) [×10⁻⁶ cm/s] | efflux ratio at 90 min, 10 μM (in vitro) | IC50 [1] [nM] | IC50 [2] [nM]
1 | COc1ccc(CCN(Cc2ncccc2C)Cc2ncccc2C)nc1 [Compound I-32] | > 10 | > 10 | 0.1 to 10 | ≥ 1000 | 0.01 to 100
2 | c1cnc2c(c1)CCC[C@@H]2N(CCc1cscn1)Cc1nc2ccccc2[nH]1 [Compound I-20] | > 10 | > 10 | 0.1 to 10 | 0.01 to 100 | 0.01 to 100
3 | COc1ccnc(CCN(Cc2ncccc2C)Cc2ncccc2C)c1 [Compound I-33] | > 10 | > 10 | 0.1 to 10 | ≥ 1000 | 0.01 to 100
4 | Cn1c(CN(CCc2c[nH]cn2)[C@H]2CCCc3cccnc32)nc2cc(F)ccc21 [Compound I-45] | < 5 | > 10 | 0.1 to 10 | ≥ 1000 | 0.01 to 100
5 | Cc1cccnc1CN(CCC(N)=O)Cc1ncccc1-c1ccccc1 [Compound I-46] | > 10 | > 10 | 0.1 to 10 | ≥ 1000 | 0.01 to 100
6 | CC(C)c1cccnc1CN(CCC(N)=O)Cc1ncccc1-c1ccccc1 [Compound I-47] | > 10 | > 10 | 0.1 to 10 | ≥ 1000 | 100 to 1000
7 | Cc1cccnc1CN(CCC(N)=O)[C@H]1CCCc2cccnc21 [Compound I-23] | 5 to 10 | > 10 | 10 to 30 | ≥ 1000 | 0.01 to 100
8 | Cc1cccnc1CN(CCc1c[nH]cn1)[C@H]1CCCc2cccnc21 [Compound I-26] | < 5 | > 10 | 10 to 30 | ≥ 1000 | 0.01 to 100
9 | Cn1c(CN(CCc2c[nH]cn2)[C@H]2CCCc3cccnc32)nc2ccccc21 [Compound I-25] | < 5 | > 10 | 10 to 30 | 0.01 to 100 | 0.01 to 100

The next lines start with the values.

Row | Papp A→B at 90 min, 10 μM (in vitro) [×10⁻⁶ cm/s] | Papp B→A at 90 min, 10 μM (in vitro) [×10⁻⁶ cm/s] | efflux ratio at 90 min, 10 μM (in vitro) | IC50 [1] [nM] | IC50 [2] [nM] | Compound
10 | > 10 | > 10 | 0.1 to 10 | ≥ 1000 | 100 to 1000 | Cc1cccnc1CN(CCn1ccccc1=O)Cc1ncccc1C [Compound I-58]
11 | 5 to 10 | > 10 | 0.1 to 10 | ≥ 1000 | 100 to 1000 | c1ccc2c(CN(CCc3c[nH]cn3)Cc3nccs3)nccc2c1 [Compound I-54]
12 | > 10 | > 10 | 0.1 to 10 | 0.01 to 100 | 0.01 to 100 | COc1cccc(CCN(Cc2ncccc2C)Cc2ncccc2C)n1 [Compound I-31, 2-(6-Methoxypyridin-2-yl)-N,N-bis((3-methylpyridin-2-yl)methyl)ethan-1-amine]
13 | < 5 | > 10 | 10 to 30 | ≥ 1000 | 0.01 to 100 | CC(c1ccccn1)N(CCc1cnc[nH]1)Cc1ccccn1 (centres unmarked) [Compound I-6]
14 | > 10 | > 10 | 0.1 to 10 | ≥ 1000 | 100 to 1000 | Clc1cccnc1CN(CCc1cnc[nH]1)Cc1nccs1 [Compound I-53]
15 | 5 to 10 | > 10 | 0.1 to 10 | 100 to 1000 | 0.01 to 100 | Cc1cccnc1CN(CCc1cnc[nH]1)Cc1ncccc1C(C)C [Compound I-34]
16 | > 10 | > 10 | 0.1 to 10 | ≥ 1000 | 0.01 to 100 | Cc1cccnc1CN(CCC(N)=O)C(C)c1ccccn1 (centres unmarked) [Compound I-13]
